Laboratory results: the supplement of paper PMC10627819

What was measured:
Test in all cases: fitness (endpoint OD595 vs no drug) (fraction); higher = more growth
S. aureus DSM 20231 = test system: S. aureus DSM 20231
Summary of the method: (§1)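 Cultures at OD595 0.01 were dispensed into 384-well plates in TSB, LB Lennox or CY and incubated at 37 °C. Every 30 min for 14 h, OD595 was read and corrected by the first reading. Fitness is the optical density at entry into stationary phase relative to the robust mean of no-drug control wells, capped at 1.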

S. pneumoniae D39V = test system: S. pneumoniae D39V
Summary of the method: as §1

S. aureus Newman = test system: S. aureus Newman
Summary of the method: as §1

[1] = first compound 12.5 µg/mL, partner 0.0156 µg/mL
[2] = first compound 12.5 µg/mL, partner 0.0312 µg/mL
[3] = first compound 12.5 µg/mL, partner 0.0625 µg/mL
[4] = first compound 25 µg/mL, partner 0.0156 µg/mL
[5] = first compound 25 µg/mL, partner 0.0312 µg/mL
[6] = first compound 25 µg/mL, partner 0.0625 µg/mL
[7] = first compound 0.1562 µg/mL, partner 0.0625 µg/mL, main component drawn
[8] = first compound 0.3125 µg/mL, partner 0.0625 µg/mL, main component drawn
[9] = first compound 0.3125 µg/mL, partner 0.25 µg/mL, main component drawn
[10] = first compound 0.625 µg/mL, partner 0.0625 µg/mL, main component drawn
[11] = first compound 0.625 µg/mL, partner 0.25 µg/mL, main component drawn

O=C(O[C@@H]1Cc2c(O)cc(O)cc2O[C@@H]1c1cc(O)c(O)c(O)c1)c1cc(O)c(O)c(O)c1 [EGCG] + CO[C@@]12[C@H](COC(N)=O)C3=C(C(=O)C(C)=C(N)C3=O)N1C[C@@H]1N[C@@H]12 [Mitomycin C]
fitness (S. aureus DSM 20231; [1]): 0.587 | fitness (S. aureus DSM 20231; [2]): 0.595 | fitness (S. aureus DSM 20231; [3]): 0.507 | fitness (S. aureus DSM 20231; [4]): 0.553 | fitness (S. aureus DSM 20231; [5]): 0.574 | fitness (S. aureus DSM 20231; [6]): 0.483 | fitness (S. pneumoniae D39V; first compound 12.5 µg/mL, partner 0.001075 µg/mL): 0.877 | fitness (S. pneumoniae D39V; first compound 12.5 µg/mL, partner 0.002 µg/mL): 0.77 | fitness (S. pneumoniae D39V; first compound 12.5 µg/mL, partner 0.00215 µg/mL): 0.783 | fitness (S. pneumoniae D39V; first compound 12.5 µg/mL, partner 0.004 µg/mL): 0.793 | fitness (S. pneumoniae D39V; first compound 12.5 µg/mL, partner 0.008 µg/mL): 0.422 | fitness (S. pneumoniae D39V; first compound 25 µg/mL, partner 0.001075 µg/mL): 0.9 | fitness (S. pneumoniae D39V; first compound 25 µg/mL, partner 0.00215 µg/mL): 0.902 | fitness (S. pneumoniae D39V; first compound 25 µg/mL, partner 0.004 µg/mL): 0.685 | fitness (S. pneumoniae D39V; first compound 25 µg/mL, partner 0.0043 µg/mL): 0.747 | fitness (S. pneumoniae D39V; first compound 25 µg/mL, partner 0.008 µg/mL): 0.379 | fitness (S. pneumoniae D39V; first compound 50 µg/mL, partner 0.001075 µg/mL): 0.926 | fitness (S. pneumoniae D39V; first compound 50 µg/mL, partner 0.002 µg/mL): 0.777 | fitness (S. pneumoniae D39V; first compound 50 µg/mL, partner 0.004 µg/mL): 0.646 | fitness (S. pneumoniae D39V; first compound 50 µg/mL, partner 0.0043 µg/mL): 0.881 | fitness (S. pneumoniae D39V; first compound 50 µg/mL, partner 0.008 µg/mL): 0.285 | fitness (S. aureus Newman; [1]): 0.541 | fitness (S. aureus Newman; [2]): 0.547 | fitness (S. aureus Newman; [3]): 0.457 | fitness (S. aureus Newman; [4]): 0.611 | fitness (S. aureus Newman; [5]): 0.528 | fitness (S. aureus Newman; [6]): 0.397 | fitness (S. aureus Newman; first compound 50 µg/mL, partner 0.0156 µg/mL): 0.628 | fitness (S. aureus Newman; first compound 50 µg/mL, partner 0.0312 µg/mL): 0.488 | fitness (S. aureus Newman; first compound 50 µg/mL, partner 0.0625 µg/mL): 0.459

CCCCCCCCCC(=O)N[C@H]1[C@H](Oc2c3cc4cc2Oc2ccc(cc2Cl)[C@@H](O[C@@H]2O[C@H](CO)[C@@H](O)[C@H](O)[C@H]2NC(C)=O)[C@@H]2NC(=O)[C@H](NC(=O)[C@@H]4NC(=O)[C@H]4NC(=O)[C@@H](Cc5ccc(c(Cl)c5)O3)NC(=O)[C@H](N)c3ccc(O)c(c3)Oc3cc(O)cc4c3)c3ccc(O)c(c3)-c3c(O[C@H]4O[C@H](CO)[C@@H](O)[C@H](O)[C@@H]4O)cc(O)cc3[C@@H](C(=O)O)NC2=O)O[C@H](CO)[C@@H](O)[C@@H]1O [Teicoplanin] + Cn1nnc(-c2ccc(-c3ccc(N4C[C@H](CO)OC4=O)cc3F)cn2)n1 [Tedizolid]
fitness (S. aureus DSM 20231; [7]): 0.808 | fitness (S. aureus DSM 20231; first compound 0.1562 µg/mL, partner 0.25 µg/mL, main component drawn): 0.066 | fitness (S. aureus DSM 20231; [8]): 0.89 | fitness (S. aureus DSM 20231; [9]): 0.0756 | fitness (S. aureus DSM 20231; [10]): 0.949 | fitness (S. aureus DSM 20231; [11]): 0.1 | fitness (S. aureus Newman; [7]): ≥ 1 | fitness (S. aureus Newman; first compound 0.1562 µg/mL, partner 0.125 µg/mL, main component drawn): ≥ 1 | fitness (S. aureus Newman; [8]): 0.969 | fitness (S. aureus Newman; first compound 0.3125 µg/mL, partner 0.125 µg/mL, main component drawn): 0.97 | fitness (S. aureus Newman; [9]): 0.391 | fitness (S. aureus Newman; first compound 0.62 µg/mL, partner 0.0625 µg/mL, one replicate, main component drawn): 0.883 | fitness (S. aureus Newman; first compound 0.62 µg/mL, partner 0.125 µg/mL, one replicate, main component drawn): 0.853 | fitness (S. aureus Newman; first compound 0.62 µg/mL, partner 0.25 µg/mL, one replicate, main component drawn): 0.447 | fitness (S. aureus Newman; [10]): 0.811 | fitness (S. aureus Newman; first compound 0.625 µg/mL, partner 0.125 µg/mL, main component drawn): 0.779 | fitness (S. aureus Newman; [11]): 0.163 | fitness (S. aureus Newman; first compound 1.24 µg/mL, partner 0.0625 µg/mL, one replicate, main component drawn): 0.789 | fitness (S. aureus Newman; first compound 1.24 µg/mL, partner 0.125 µg/mL, one replicate, main component drawn): 0.812 | fitness (S. aureus Newman; first compound 1.24 µg/mL, partner 0.25 µg/mL, one replicate, main component drawn): 0.402 | fitness (S. aureus Newman; first compound 2.48 µg/mL, partner 0.0625 µg/mL, one replicate, main component drawn): 0.474 | fitness (S. aureus Newman; first compound 2.48 µg/mL, partner 0.125 µg/mL, one replicate, main component drawn): 0.627 | fitness (S. aureus Newman; first compound 2.48 µg/mL, partner 0.25 µg/mL, one replicate, main component drawn): 0.361
